Twelve compounds from BindingDB's records for doi:10.1111/cbdd.12189 (Tianjin Medical University, 2013) can be followed below.

The target in experiment [1] is T1, Tyrosine-protein phosphatase non-receptor type 2 (Homo sapiens, UniProt P17706).
T1 sequence (P17706 whole entry): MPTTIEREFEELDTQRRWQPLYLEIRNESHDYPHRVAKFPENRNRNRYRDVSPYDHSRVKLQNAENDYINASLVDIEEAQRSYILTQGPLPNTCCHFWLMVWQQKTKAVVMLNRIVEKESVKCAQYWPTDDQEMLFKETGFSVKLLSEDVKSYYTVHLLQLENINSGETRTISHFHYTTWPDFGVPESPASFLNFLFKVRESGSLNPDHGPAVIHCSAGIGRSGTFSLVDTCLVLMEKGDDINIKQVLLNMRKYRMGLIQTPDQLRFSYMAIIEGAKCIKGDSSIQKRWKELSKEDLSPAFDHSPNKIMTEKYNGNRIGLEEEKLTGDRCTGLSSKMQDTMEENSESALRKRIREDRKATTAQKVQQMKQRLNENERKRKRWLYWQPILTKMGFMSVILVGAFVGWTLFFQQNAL
As to the kind of experiment: PTP activity assay. As to conditions: pH 6; 37 °C. As to the method:
(§1) The enzyme activity was measured using p-nitrophenyl phosphate (pNPP) as substrate in a 96-well plate and by detecting the absorbance at 405 nm for the amount of produced p-nitrophenol. Purified human recombinant PTP1B or TCPTP (0.05 µg) in 50 µL buffer containing 50 mM citrate (pH 6.0), 0.1 M NaCl, 1 mM EDTA, and 1 mM DTT and test compounds were added to each well. Each mixture was pre-incubated for 15 min at room temperature, followed by the addition of 50 µL of reaction buffer containing 2 mM pNPP and incubated at 37°C for 30 min.

Experiment [2] concerns the target T2, Tyrosine-protein phosphatase non-receptor type 1 (Homo sapiens, UniProt P18031).
T2 sequence (P18031 whole entry): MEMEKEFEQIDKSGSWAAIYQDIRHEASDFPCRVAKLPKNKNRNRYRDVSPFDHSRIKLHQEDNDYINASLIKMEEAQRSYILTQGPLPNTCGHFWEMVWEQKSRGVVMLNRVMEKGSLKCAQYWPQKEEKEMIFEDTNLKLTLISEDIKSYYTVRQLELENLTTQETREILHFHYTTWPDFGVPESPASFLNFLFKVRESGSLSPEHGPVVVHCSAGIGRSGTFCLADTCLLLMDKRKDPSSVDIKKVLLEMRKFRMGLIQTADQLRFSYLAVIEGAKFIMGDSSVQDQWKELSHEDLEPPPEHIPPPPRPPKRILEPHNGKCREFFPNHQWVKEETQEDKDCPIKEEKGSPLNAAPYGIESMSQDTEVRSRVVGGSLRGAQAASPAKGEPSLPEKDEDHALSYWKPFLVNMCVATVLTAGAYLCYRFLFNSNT
As to the kind of experiment: PTP activity assay. As to conditions: pH 6; 37 °C. As to the method:
as §1

pIC50: −log10 of the molar value.

As for `O=C1NC(=O)/C(=C/c2cccc(OCCc3ccccc3)c2)N1` [(5Z)‐5‐{[3‐(2‐ phenylethoxy)phenyl]methylidene}imidazolidine‐2,4‐ dione (comp#e)], the figures for the pIC50 in experiment [1] and in experiment [2] were 4.36 and 4.94, respectively.

Consider `O=C1NC(=O)/C(=C/c2cccc(OCc3ccccc3)c2)N1` [(5Z)‐5‐{[3‐ (benzyloxy)phenyl]methylidene}imidazolidine‐2,4‐ dione (comp#d)], for which the pIC50 in experiment [1] and in experiment [2] was less than 3.77 in each case.

As for `O=C1NC(=O)/C(=C/c2ccccc2OCc2ccc(Cl)cc2)N1` [(5Z)‐5‐({2‐[(4‐ chlorophenyl)methoxy]phenyl}methylidene)imidazolidine‐ 2,4‐dione (comp#b)], the pIC50 in experiment [1] is 4.44; in experiment [2] it was 5.34.

In turn, `O=C1NC(=O)/C(=C/c2ccc(OCc3ccc(Cl)cc3Cl)cc2)N1` [(5Z)‐5‐({4‐[(2,4‐ dichlorophenyl)methoxy]phenyl}methylidene)imidazolidine‐ 2,4‐dione (comp#j)] showed a pIC50 in experiment [1] of 4.94.

Turning to `O=C1NC(=O)/C(=C/c2ccccc2OCc2ccc(Cl)cc2Cl)N1` [(5Z)‐5‐({2‐[(2,4‐ dichlorophenyl)methoxy]phenyl}methylidene)imidazolidine‐ 2,4‐dione (comp#c)], the values for the pIC50 in experiment [1] and in experiment [2] were 4.73 and 5.39, respectively.

On to `O=C1NC(=O)/C(=C/c2cccc(OCc3ccc(Cl)cc3Cl)c2)N1` [(5Z)‐5‐({3‐[(2,4‐ dichlorophenyl)methoxy]phenyl}methylidene)imidazolidine‐ 2,4‐dione (comp#h)], for which the negative-log IC50 (pIC50) in experiment [1] is less than 3.86; in experiment [2] it was 5.39.

For `O=C1NC(=O)/C(=C/c2ccccc2OCc2cccc(Cl)c2)N1` [(5Z)‐5‐({2‐[(3‐ chlorophenyl)methoxy]phenyl}methylidene)imidazolidine‐ 2,4‐dione (comp#a)], the pIC50 in experiment [1] and in experiment [2] was 4.43 each time.

Turning to `O=C1NC(=O)/C(=C/c2cccc(OCCCc3ccccc3)c2)N1` [(5Z)‐5‐{[3‐(3‐ phenylpropoxy)phenyl]methylidene}imidazolidine‐2,4‐ dione (comp#f)], the pIC50 was 4.65 in experiment [1] and 4.38 in experiment [2].

Take `O=C1NC(=O)/C(=C/c2cccc(OCc3ccc(Cl)c(Cl)c3)c2)N1` [(5Z)‐5‐({3‐[(3,4‐ dichlorophenyl)methoxy]phenyl}methylidene)imidazolidine‐ 2,4‐dione (comp#i)]: the figures for the pIC50 in experiment [1] and in experiment [2] were 4.47 and 5.55, respectively.

With `O=C1NC(=O)/C(=C/c2cccc(OCc3ccc(Cl)cc3)c2)N1` [(5Z)‐5‐({3‐[(4‐ chlorophenyl)methoxy]phenyl}methylidene)imidazolidine‐ 2,4‐dione (comp#g)], the pIC50 in experiment [1] was 3.86; in experiment [2] it was 4.39.

For `COc1ccc(COc2ccc(/C=C3\NC(=O)NC3=O)cc2)cc1` [(5Z)‐5‐({4‐[(4‐ methoxyphenyl)methoxy]phenyl}methylidene)imidazolidine‐ 2,4‐dione (comp#l)], the pIC50 was 4.50 in experiment [1] and 5.47 in experiment [2].

`O=C1NC(=O)/C(=C/c2ccc(OCc3ccc(Cl)c(Cl)c3)cc2)N1` [(5Z)‐5‐({4‐[(3,4‐ dichlorophenyl)methoxy]phenyl}methylidene)imidazolidine‐ 2,4‐dione (comp#k)] gave a pIC50 in experiment [1] of 4.47.
